Reference: ChEMBL document CHEMBL5724914, “Linking interpersonal differences in gut microbiota composition and drug biotransformation activity” (2024)

Key:
[1] = human gut metagenome, 24 h, 2 µM
[2] = (§1) The drug is tested on Z-017 corresponding to mouse gut metagenome with ENA study accession number: PRJEB37062 and ENA sample accession number: ERS12561816 for biotransformation under anaerobic condition. The drug concentrations were measured over 9 timepoints collected between 0 and 24 hours of incubation by liquid-chromatography-coupled mass spectrometry (LC–MS); conditions: 2 µM
[3] = as §1, with “Z-002” for “Z-017”, “rabbit” for “mouse”, “ERS12561802” for “ERS12561816”; conditions: 2 µM
[4] = as §1, with “Z-013” for “Z-017”, “rabbit” for “mouse”, “ERS12561813” for “ERS12561816”; conditions: 2 µM
[5] = as §1, with “Z-009” for “Z-017”, “pig” for “mouse”, “ERS12561809” for “ERS12561816”; conditions: 2 µM
[6] = human gut metagenome, 24 h, 2 µM; remark: listed apart in the source
[7] = human gut metagenome, 24 h, 2 µM; remark: listed apart in the source
[8] = as §1, with “Z-022” for “Z-017”, “ERS12561821” for “ERS12561816”; conditions: 2 µM
[9] = human gut metagenome, 24 h, 2 µM; remark: listed apart in the source
[10] = human gut metagenome, 24 h, 2 µM; remark: listed apart in the source
[11] = human gut metagenome, 24 h, 2 µM; remark: listed apart in the source
[12] = as §1, with “WLS-240” for “Z-017”, “human” for “mouse”, “ERS12561773” for “ERS12561816”; conditions: 2 µM
[13] = as §1, with “Z-005” for “Z-017”, “to” for “to mouse gut”, “ERS12561805” for “ERS12561816”; conditions: 2 µM
[14] = human gut metagenome, 24 h, 2 µM; remark: listed apart in the source
[15] = as §1, with “Z-010” for “Z-017”, “to” for “to mouse gut”, “ERS12561810” for “ERS12561816”; conditions: 2 µM
[16] = human gut metagenome, 24 h, 2 µM; remark: listed apart in the source
[17] = human gut metagenome, 24 h, 2 µM; remark: listed apart in the source
[18] = as §1, with “Z-028” for “Z-017”, “ERS12561827” for “ERS12561816”; conditions: 2 µM
[19] = as §1, with “Z-030” for “Z-017”, “ERS12561829” for “ERS12561816”; conditions: 2 µM
[20] = as §1, with “WLS-098” for “Z-017”, “human” for “mouse”, “ERS12561754” for “ERS12561816”; conditions: 2 µM
Further: call rule not given here.

SMILES	Bacterial Biotransformation [1]	Bacterial Biotransformation [2]	Bacterial Biotransformation [3]	Bacterial Biotransformation [4]	Bacterial Biotransformation [5]	Bacterial Biotransformation [6]	Bacterial Biotransformation [7]	Bacterial Biotransformation [8]	Bacterial Biotransformation [9]	Bacterial Biotransformation [10]	Bacterial Biotransformation [11]	Bacterial Biotransformation [12]	Bacterial Biotransformation [13]	Bacterial Biotransformation [14]	Bacterial Biotransformation [15]	Bacterial Biotransformation [16]	Bacterial Biotransformation [17]	Bacterial Biotransformation [18]	Bacterial Biotransformation [19]	Bacterial Biotransformation [20]
Clc1ccc(Cn2c(CN3CCCC3)nc3ccccc32)cc1 [CLEMIZOLE]	Compound NOT metabolized	Compound NOT metabolized	Compound metabolized	Compound metabolized	Compound NOT metabolized	Compound metabolized	Compound metabolized	Compound NOT metabolized	Compound metabolized	Compound metabolized	Compound metabolized	Compound metabolized	Compound NOT metabolized	Compound metabolized	Compound metabolized	Compound metabolized	Compound metabolized	Compound NOT metabolized	Compound NOT metabolized	Compound metabolized
CN1CCN(C2=Nc3cc(Cl)ccc3Nc3ccccc32)CC1 [CLOZAPINE]	Compound NOT metabolized	Compound NOT metabolized	Compound metabolized	Compound NOT metabolized	Compound NOT metabolized	Compound NOT metabolized	Compound metabolized	Compound NOT metabolized	Compound NOT metabolized	Compound NOT metabolized	Compound metabolized	Compound metabolized	Compound NOT metabolized	Compound metabolized	Compound NOT metabolized	Compound NOT metabolized	Compound NOT metabolized	Compound NOT metabolized	Compound NOT metabolized	Compound metabolized
COc1cc2c(c(OC)c1OC)-c1ccc(OC)c(=O)cc1[C@@H](NC(C)=O)CC2 [COLCHICINE]	Compound metabolized	Compound NOT metabolized	Compound metabolized	Compound NOT metabolized	Compound metabolized	Compound metabolized	Compound metabolized	Compound metabolized	Compound NOT metabolized	Compound metabolized	Compound metabolized	Compound metabolized	Compound metabolized	Compound metabolized	Compound metabolized	Compound metabolized	Compound NOT metabolized	Compound NOT metabolized	Compound NOT metabolized	Compound NOT metabolized
CC(=O)OCC(=O)[C@@]12N=C(C)O[C@@H]1C[C@H]1[C@@H]3CCC4=CC(=O)C=C[C@]4(C)[C@H]3[C@@H](O)C[C@@]12C [DEFLAZACORT]	Compound metabolized	Compound metabolized	Compound metabolized	Compound metabolized	Compound metabolized	Compound metabolized	Compound metabolized	Compound metabolized	Compound metabolized	Compound metabolized	Compound metabolized	Compound metabolized	Compound metabolized	Compound metabolized	Compound metabolized	Compound metabolized	Compound metabolized	Compound metabolized	Compound metabolized	Compound metabolized
CN(C)CC(c1ccc(O)cc1)C1(O)CCCCC1.O=C(O)CCC(=O)O (stereo not given) [DESVENLAFAXINE SUCCINATE]	Compound NOT metabolized	Compound NOT metabolized	Compound NOT metabolized	Compound NOT metabolized	Compound NOT metabolized	Compound NOT metabolized	Compound NOT metabolized	Compound NOT metabolized	Compound NOT metabolized	Compound NOT metabolized	Compound NOT metabolized	Compound NOT metabolized	Compound NOT metabolized	Compound NOT metabolized	Compound NOT metabolized	Compound NOT metabolized	Compound NOT metabolized	Compound NOT metabolized	Compound NOT metabolized	Compound NOT metabolized
CN1CCN(C(=O)O[C@H]2c3nccnc3C(=O)N2c2ccc(Cl)cn2)CC1 [ESZOPICLONE]	Compound NOT metabolized	Compound NOT metabolized	Compound NOT metabolized	Compound NOT metabolized	Compound NOT metabolized	Compound NOT metabolized	Compound NOT metabolized	Compound NOT metabolized	Compound NOT metabolized	Compound NOT metabolized	Compound NOT metabolized	Compound NOT metabolized	Compound NOT metabolized	Compound NOT metabolized	Compound NOT metabolized	Compound NOT metabolized	Compound NOT metabolized	Compound NOT metabolized	Compound NOT metabolized	Compound NOT metabolized
O=C1[C@H](CC[C@H](O)c2ccc(F)cc2)[C@@H](c2ccc(O)cc2)N1c1ccc(F)cc1 [EZETIMIBE]	Compound NOT metabolized	Compound NOT metabolized	Compound NOT metabolized	Compound NOT metabolized	Compound NOT metabolized	Compound NOT metabolized	Compound NOT metabolized	Compound NOT metabolized	Compound NOT metabolized	Compound NOT metabolized	Compound NOT metabolized	Compound metabolized	Compound NOT metabolized	Compound NOT metabolized	Compound NOT metabolized	Compound NOT metabolized	Compound NOT metabolized	Compound NOT metabolized	Compound NOT metabolized	Compound metabolized
CC(C)OC(=O)C(C)(C)Oc1ccc(C(=O)c2ccc(Cl)cc2)cc1 [FENOFIBRATE]	Compound NOT metabolized	Compound metabolized	Compound metabolized	Compound metabolized	Compound metabolized	Compound metabolized	Compound metabolized	Compound NOT metabolized	Compound metabolized	Compound NOT metabolized	Compound metabolized	Compound NOT metabolized	Compound metabolized	Compound metabolized	Compound metabolized	Compound metabolized	Compound metabolized	Compound metabolized	Compound metabolized	Compound metabolized
